Experiment [1] has as its system Mus musculus. Briefly: Induction of cytosolic Glutathione S-transferase activity per mg of protein in A/J mouse small bowel mucosa at 20 mg, po for once every 2 days for total three doses measured after 24 hrs of last dose. The class given is functional.
Experiment [2] relates to Mus musculus. The experiment can be described thus: Ratio of drug to control in induction of cytosolic Glutathione S-transferase activity per mg of protein in A/J mouse small bowel mucosa at 20 mg, po for once every 2 days for total three doses measured after 24 hrs of last dose. The class given is functional.
The test system of experiment [3] is Mus musculus. Briefly: Induction of cytosolic Glutathione S-transferase activity per mg of protein in A/J mouse liver at 20 mg, po for once every 2 days for total three doses measured after 24 hrs of last dose. It is filed as functional.
For experiment [4], the system named is Mus musculus. The experiment can be described thus: Induction of cytosolic Glutathione S-transferase activity per mg of protein in A/J mouse forestomach at 20 mg, po for once every 2 days for total three doses measured after 24 hrs of last dose. The class given is functional, Stomach.
In experiment [5] the test system is Mus musculus. The experiment can be described thus: Ratio of drug to control in induction of cytosolic Glutathione S-transferase activity per mg of protein in A/J mouse forestomach at 20 mg, po for once every 2 days for total three doses measured after 24 hrs of last dose. The class given is functional, Stomach.
Experiment [6] concerns Mus musculus. Briefly: Ratio of drug to control in induction of cytosolic Glutathione S-transferase activity per mg of protein in A/J mouse liver at 20 mg, po for once every 2 days for total three doses measured after 24 hrs of last dose. The class given is functional.

In the case of `C/C1=C\CC/C(C)=C/CC(C)(C)/C=C/C1` [ALPHA-HUMULONE], the Activity with Mus musculus [1] stood at 0.63 µmol/min; in the experiment with Mus musculus [3], 1.47 µmol/min; with Mus musculus [4], 0.63 µmol/min. Moreover, the Ratio came out at 2.52 in the experiment on Mus musculus [2], 1.02 in the experiment with Mus musculus [5] and 1.99 with Mus musculus [6].

With `C/C1=C\CC[C@@]2(C)O[C@@H]2CC(C)(C)/C=C/C1`, the values for the Activity with Mus musculus [1], in the experiment on Mus musculus [3] and in the experiment with Mus musculus [4] were 0.81 µmol/min, 1.54 µmol/min and 0.77 µmol/min, respectively. In addition, the Ratio stood at 3.24 in the experiment with Mus musculus [2], 1.24 with Mus musculus [5] and 2.08 with Mus musculus [6].

In the case of `C=CCc1ccc(O)c(OC)c1` [EUGENOL], the Activity with Mus musculus [1] stood at 0.59 µmol/min; in the experiment on Mus musculus [3], 0.93 µmol/min; with Mus musculus [4], 0.75 µmol/min. For the same molecule, the Ratio in the experiment with Mus musculus [2] is recorded as 2.36; with Mus musculus [5] it was 1.21; with Mus musculus [6] it was 1.26.

On to `C=C1CC[C@@H]2O[C@]2(C)CC[C@@H]2[C@@H]1CC2(C)C`, for which the Activity with Mus musculus [1] turned out to be 1.2 µmol/min; in the experiment on Mus musculus [3] it was 2.13 µmol/min; in the experiment on Mus musculus [4] it was 0.59 µmol/min. In addition, the Ratio with Mus musculus [2] was 4.8; with Mus musculus [5], 0.95; in the experiment with Mus musculus [6], 2.88.

With `C=C1CC/C=C(\C)CC[C@@H]2[C@@H]1CC2(C)C` [BETA-CARYOPHYLLENE], the Activity in the experiment on Mus musculus [1] stood at 0.75 µmol/min; in the experiment with Mus musculus [3], 1.92 µmol/min; with Mus musculus [4], 0.77 µmol/min. For the same molecule, the Ratio in the experiment with Mus musculus [2] was found to be 3; in the experiment on Mus musculus [5] it was 1.24; in the experiment on Mus musculus [6], 2.59.

Values taken from ChEMBL document CHEMBL1149727, “Sesquiterpenes from clove (Eugenia caryophyllata) as potential anticarcinogenic agents” (1992).
